# Target: T1, HDAC6 enzyme (Homo sapiens, UniProt Q9UBN7)
# T1 construct: transducing full length HDAC6 gene into Sf-9 insect cells; GST; purchased SignalChem; host or cells: Sf-9 insect cells
# T1 sequence (Q9UBN7 1-1215): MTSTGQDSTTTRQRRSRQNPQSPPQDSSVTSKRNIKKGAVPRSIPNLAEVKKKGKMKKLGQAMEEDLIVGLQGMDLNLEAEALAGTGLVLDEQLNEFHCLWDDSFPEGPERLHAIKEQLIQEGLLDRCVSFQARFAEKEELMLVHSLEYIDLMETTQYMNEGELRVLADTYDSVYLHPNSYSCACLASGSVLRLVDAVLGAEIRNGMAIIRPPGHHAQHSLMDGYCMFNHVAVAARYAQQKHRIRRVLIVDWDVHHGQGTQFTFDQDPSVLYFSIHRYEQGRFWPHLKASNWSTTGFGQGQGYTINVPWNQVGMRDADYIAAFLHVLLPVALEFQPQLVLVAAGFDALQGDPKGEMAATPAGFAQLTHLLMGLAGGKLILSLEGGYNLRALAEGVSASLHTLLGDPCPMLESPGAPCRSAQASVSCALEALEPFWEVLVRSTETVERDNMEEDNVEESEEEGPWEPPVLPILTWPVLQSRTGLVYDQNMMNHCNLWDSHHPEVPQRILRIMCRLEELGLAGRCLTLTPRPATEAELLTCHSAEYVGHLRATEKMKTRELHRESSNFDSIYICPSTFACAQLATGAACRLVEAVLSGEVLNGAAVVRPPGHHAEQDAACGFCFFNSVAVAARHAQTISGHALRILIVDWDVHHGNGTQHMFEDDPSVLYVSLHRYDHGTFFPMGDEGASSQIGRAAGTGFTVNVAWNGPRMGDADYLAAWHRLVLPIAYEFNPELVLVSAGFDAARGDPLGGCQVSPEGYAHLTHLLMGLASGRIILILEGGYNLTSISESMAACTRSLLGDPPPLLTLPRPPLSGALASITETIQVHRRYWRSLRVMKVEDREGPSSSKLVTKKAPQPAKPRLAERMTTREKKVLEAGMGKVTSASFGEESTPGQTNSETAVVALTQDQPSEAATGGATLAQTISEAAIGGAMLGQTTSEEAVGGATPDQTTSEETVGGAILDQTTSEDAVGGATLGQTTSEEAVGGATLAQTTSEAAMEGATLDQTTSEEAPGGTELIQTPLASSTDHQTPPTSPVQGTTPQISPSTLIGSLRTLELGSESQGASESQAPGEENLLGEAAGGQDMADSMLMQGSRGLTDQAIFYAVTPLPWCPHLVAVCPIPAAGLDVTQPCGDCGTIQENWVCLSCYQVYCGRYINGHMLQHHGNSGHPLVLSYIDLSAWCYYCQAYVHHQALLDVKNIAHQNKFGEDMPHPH
# Assay: HDAC6 enzyme inhibitory activity (HDAC-Glo I/II Assay kit)
# Format: biochemical
# Details: 10 μM; wells without enzyme = 100% inhibition; read-out: HDAC6 inhibitory rate (%) (10 μM)
# Outline: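 Sf-9-derived GST-purified full-length HDAC6 + cpd, 60 min RT, 24 mM Tris pH 7.5/0.6 mM glutathione/0.01% Tween-20; add HDAC-Glo substrate-developer, 20 min RT; luminescence. No-enzyme = 100% inhibition.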
row,inhibition at 10 µM [%],Compound
1,102,"Cn1cc(-c2c(Cl)cccc2N2Cc3ccc(-c4nnc(C(F)F)o4)cc3C2=O)cn1 [Example 403, 2-(3-chloro-2-(1-methyl-1H-pyrazol-4-yl)phenyl)-6-(5-(difluoro-methyl)-1,3,4-oxadiazol-2-yl) isoindolin-1-one]"
2,100,"O=C1c2cc(-c3nnc(C(F)F)o3)ccc2CN1c1cccc(Cl)c1-c1cccc(F)c1 [Example 404, 2-(6-chloro-3′-fluoro-biphenyl-2-yl)-6-(5-(difluoro-methyl)-1,3,4-oxadiazol-2-yl) isoindolin-1-one]"
3,100,"Cn1nc(C(F)(F)F)cc1-c1cc(F)ccc1N1Cc2ncc(-c3nnc(C(F)F)o3)cc2C1=O [Example 412, 3-(5-(difluoro-methyl)-1,3,4-oxadiazol-2-yl)-6-(4-fluoro-2-(1-methyl-3-(trifluoro-methyl)-1H-pyrazol-5-yl)phenyl)-6,7-dihydro-5H-pyrrolo[3,4-b] pyridin-5-one]"
4,87,"N[C@H]1COCC[C@H]1N1Cc2ccc(-c3nnc(C(F)F)o3)cc2C1=O [Example 414, 2-((3R,4R)-3-aminotetra-hydro-2H-pyran-4-yl)-6-(5-(difluoro-methyl)-1,3,4-oxadiazol-2-yl) isoindolin-1-one]"
5,101,"O=C1c2cc(-c3nnc(C(F)F)o3)ccc2CN1[C@@H]1CCOC[C@@H]1NCC(F)(F)F [Example 415, 6-(5-(difluoro-methyl)-1,3,4-oxadiazol-2-yl)-2-((3R,4R)-3-((2,2,2-trifluoro-ethyl)amino)tetrahydro-2H-pyran-4-yl) isoindolin-1-one]"
6,101,"O=C1c2cc(-c3nnc(C(F)F)o3)ccc2CN1[C@@H]1CCOC[C@@H]1NCC(F)(F)C(F)(F)F [Example 416, 6-(5-(difluoro-methyl)-1,3,4-oxadiazol-2-yl)-2-((3R,4R)-3-((2,2,3,3,3-pentafluoro-propyl)amino)tetrahydro-2H-pyran-4-yl) isoindolin-1-one]"
7,99,"O=C1c2cc(-c3nnc(C(F)F)o3)ccc2CN1[C@@H]1CCOC[C@@H]1NC(=O)C(F)(F)C(F)(F)F [Example 418, N-((3R,4R)-4-(6-(5-(difluoro-methyl)-1,3,4-oxadiazol-2-yl)-1-oxo-1,3-dihydro-2H-isoindol-2-yl)tetrahydro-2H-pyran-3-yl)-2,2,3,3,3-pentafluoro-propanamide]"
8,99,"O=C1c2cc(-c3nnc(C(F)F)o3)cc(F)c2CN1C[C@H]1CC(F)(F)CN1S(=O)(=O)c1cccc(F)c1 [Example 420, 2-(((2R)-4,4-difluoro-1-((3-fluoro-phenyl)sulfonyl)pyrrolidin-2-yl)methyl)-6-(5-(difluoro-methyl)-1,3,4-oxadiazol-2-yl)-4-fluoroiso-indolin-1-one]"
9,98,"O=C1c2cc(-c3nnc(C(F)F)o3)cc(F)c2CN1C[C@H]1CC(F)(F)CN1S(=O)(=O)CC(F)(F)F [Example 421, 6-(5-(difluoro-methyl)-1,3,4-oxadiazol-2-yl)-2-(((2R)-4,4-difluoro-1-((2,2,2-trifluoro-ethyl)sulfonyl)pyrrolidin-2-yl)methyl)-4-fluoroiso-indolin-1-one]"
10,99,"Cn1cc(CN2Cc3ncc(-c4nnc(C(F)F)o4)cc3C2=O)cn1 [Example 423, 3-(5-(difluoro-methyl)-1,3,4-oxadiazol-2-yl)-6-((1-methyl-1H-pyrazol-4-yl)methyl)-6,7-dihydro-5H-pyrrolo[3,4-b] pyridin-5-one]"

# More lines, now with the values behind:
row,Compound,inhibition at 10 µM [%]
1,"O=C1c2cc(-c3nnc(C(F)F)o3)ccc2CN1c1cccc(Cl)c1-c1cnn(C(F)F)c1 [Example 402, 2-(3-chloro-2-(1-(difluoro-methyl)-1H-pyrazol-4-yl)phenyl)-6-(5-(difluoro-methyl)-1,3,4-oxadiazol-2-yl) isoindolin-1-one]",100
2,"O=C1c2cc(-c3nnc(C(F)F)o3)ccc2CN1c1ccc(Cl)cc1-c1cnn(C(F)F)c1 [Example 405, 2-(4-chloro-2-(1-(difluoro-methyl)-1H-pyrazol-4-yl)phenyl)-6-(5-(difluoro-methyl)-1,3,4-oxadiazol-2-yl) isoindolin-1-one]",101
3,"O=C1c2cc(-c3nnc(C(F)F)o3)cnc2CN1c1ccc(F)cc1Br [Example 406, 6-(2-bromo-4-fluorophenyl)-3-(5-(difluoromethyl)-1,3,4-oxadiazol-2-yl)-6,7-dihydro-5H-pyrrolo[3,4-b]pyridin-5-one]",100
4,"N#Cc1cccc(-c2cc(F)ccc2N2Cc3ncc(-c4nnc(C(F)F)o4)cc3C2=O)c1 [Example 407, 2′-(3-(5-(difluoro-methyl)-1,3,4-oxadiazol-2-yl)-5-oxo-5,7-dihydro-6H-pyrrolo[3,4-b]pyridin-6-yl)-5′-fluoro-biphenyl-3-carbonitrile]",99
5,"O=C1c2cc(-c3nnc(C(F)F)o3)cnc2CN1c1ccc(F)cc1-c1cnn(C(F)F)c1 [Example 408, 3-(5-(difluoro-methyl)-1,3,4-oxadiazol-2-yl)-6-(2-(1-(difluoro-methyl)-1H-pyrazol-4-yl)-4-fluorophenyl)-6,7-dihydro-5H-pyrrolo[3,4-b] pyridin-5-one]",99
6,"O=C1c2cc(-c3nnc(C(F)F)o3)cnc2CN1c1ccc(F)cc1-c1cccc(F)c1 [Example 409, 6-(3′,5-difluoro-biphenyl-2-yl)-3-(5-(difluoro-methyl)-1,3,4-oxadiazol-2-yl)-6,7-dihydro-5H-pyrrolo [3,4-b]pyridin-5-one]",99
7,"O=C1c2cc(-c3nnc(C(F)F)o3)cnc2CN1c1ccc(F)cc1-c1cccc(Cl)c1 [Example 410, 6-(3′-chloro-5-fluoro-biphenyl-2-yl)-3-(5-(difluoro-methyl)-1,3,4-oxadiazol-2-yl)-6,7-dihydro-5H-pyrrolo [3,4-b]pyridin-5-one]",101
8,"Cn1cc(-c2cc(F)ccc2N2Cc3ncc(-c4nnc(C(F)F)o4)cc3C2=O)cn1 [Example 411, 3-(5-(difluoro-methyl)-1,3,4-oxadiazol-2-yl)-6-(4-fluoro-2-(1-methyl-1H-pyrazol-4-yl)phenyl)-6,7-dihydro-5H-pyrrolo[3,4-b] pyridin-5-one]",100
9,"CC(C)(C)OC(=O)N[C@H]1COCC[C@H]1N1Cc2ccc(-c3nnc(C(F)F)o3)cc2C1=O [Example 413, tert-butyl ((3R,4R)-4-(6-(5-(difluoro-methyl)-1,3,4-oxadiazol-2-yl)-1-oxo-1,3-dihydro-2H-isoindol-2-yl)tetrahydro-2H-pyran-3-yl) carbamate]",98
10,"Cn1ccc(CN2Cc3ncc(-c4nnc(C(F)F)o4)cc3C2=O)n1 [Example 419, 3-(5-(difluoro-methyl)-1,3,4-oxadiazol-2-yl)-6-((1-methyl-1H-pyrazol-3-yl)methyl)-6,7-dihydro-5H-pyrrolo[3,4-b] pyridin-5-one]",99
11,"O=C1c2cc(-c3nnc(C(F)F)o3)cc(F)c2CN1C[C@H]1CC(F)(F)CN1C(=O)C1CC1 [Example 422, 2-(((2R)-1-(cyclopropyl-carbonyl)-4,4-difluoro-pyrrolidin-2-yl)methyl)-6-(5-(difluoro-methyl)-1,3,4-oxadiazol-2-yl)-4-fluoroiso-indolin-1-one]",98
12,"O=C1c2cc(-c3nnc(C(F)F)o3)cnc2CN1c1ccccc1-c1cnn(C(F)F)c1 [Example 424, 3-(5-(difluoro-methyl)-1,3,4-oxadiazol-2-yl)-6-(2-(1-(difluoro-methyl)-1H-pyrazol-4-yl)phenyl)-6,7-dihydro-5H-pyrrolo[3,4-b] pyridin-5-one]",101

# Same assay, conditions: read-out: HDAC6 inhibitory rate (%) (10 μM)
row,Compound,inhibition at 10 µM [%]
1,"O=C1c2cc(-c3nnc(C(F)F)o3)ccc2CN1[C@@H]1CCOC[C@@H]1NCC(F)(F)C(F)(F)C(F)(F)F [Example 417, 6-(5-(difluoro-methyl)-1,3,4-oxadiazol-2-yl)-2-((3R,4R)-3-((2,2,3,3,4,4,4-heptafluoro-butyl)amino)tetrahydro-2H-pyran-4-yl) isoindolin-1-one]",101

# Reference: patent US10435399B2, “HDAC6 inhibitory heterocyclic compound” (TAKEDA PHARMACEUTICAL COMPANY LIMITED, priority 2017, dated 2019)
